According to patent publication US20170266091A1, “Mouthwash Composition Comprising a Peroxide Source and an N-Acyl-L-Arginine Alkyl Ester Salt” (Colgate-Palmolive Company, priority 2014, published 2017):

Test system: mixed-species bacterial culture (Actinomyces viscosus, Lactobacillus casei, Fusobacterium nucleatum subsp. polymorphum, Streptococcus oralis and Veillonella …)
Assay: Short interval kill (SIK) test
Assay type: cell-based
Conditions: thirty seconds treatment, Live/Dead staining
Procedure: The anti-microbial efficacy of mouthwash formulations according to the present invention was tested using short interval kill (SIK) test. The formulations tested were the same as those used in Example 2. 500 μl of a mixed-species bacterial culture (Actinomyces viscosus (ATCC#43146), Lactobacillus casei (ATCC#334), Fusobacterium nucleatum subsp. polymorphum (ATCC#10953), Streptococcus oralis (ATCC#35037) and Veillonella parvula (ATCC#17745)) were transferred to sterile 2 ml microcentrifuge tubes. The samples were centrifuged for 10 min at ˜21 000×g to pellet bacterial cells. […] The re-suspended samples were subsequently treated with 100 μl of mouthwash or control solution. Bacterial killing was stopped after thirty seconds by adding 1.3 ml of D/E Neutralization Buffer. Samples were centrifuged for 10 min at 10,000 rpm to pellet bacterial cells. […] Finally, the pelleted cells were suspended in 150 μl of sterile PBS and aliquots were transferred to each of three wells of a sterile 96-well plate. To quantify the viable bacteria left after treatment, the bacterial suspensions were stained using Invitrogen BacLight Live/Dead viability kit. This kit consists of two fluorescent dyes, propidium iodine and SYTO9. The first dye, propidium iodide, is a red fluorescent DNA stain that can only penetrate bacterial cells whose membranes have been permeabilized (i.e. those cells that are “dead”). The second dye, SYTO9, is a green fluorescent DNA dye that is able to stain all bacterial cells. The bacterial suspensions were stained by adding 50 μl of a solution containing the two dyes in equal amounts to each well of the 96-well plate. Plates were then incubated for 15 min at room temperature, protected from light. The fluorescence of the samples were measured at an excitation wavelength of 485 nm and emission wavelengths of 535 nm and 635 nm. The results are illustrated in Table 8, and are provided as the percentage of cells that are viable relative to a control treatment with PBS alone.

CCO [Ethanol 100%, Ethanol]
percentage of cells that are viable relative to PBS control, Run 1 (Run 1): 44% | percentage of cells that are viable relative to PBS control, Run 2 (Run 2): 47% | percentage of cells that are viable relative to PBS control, Run 3 (Run 3): 48% | percentage of cells that are viable relative to PBS control, Average (average of 3 runs): 46%
